According to PMC11651915, “Small molecule protein assembly modulators with pan-cancer therapeutic efficacy” (Open Biology, 2024):
Structures can show the parent of a compound that is named as a salt.

Assays:
[1] = Mouse pharmacokinetics (plasma and lung); format: in vivo; settings: PAV-621 5 mg kg^−1 IP versus PAV-951 2.5 mg kg^−1 IV
Procedure: Pharmacokinetic (PK) studies were conducted in male Sprague Dawley Rats aged 8–10 weeks or male CD1 mice aged 5–6 weeks or Balb/c nude mice. Treatment groups were made up of four animals each and dosing regimens for disclosed data is provided. Animals were sacrificed at the end of the study period using an overdose of CO2. PK studies were conducted at Vipragen Biosciences Private Limited or Pharmaron in accordance with the CPCSEA guidelines and ARRIVE guidelines.
CD1 or Balb/c nude mice aged 6–8 weeks were randomly divided into treatment groups with three animals per group. Animals in each treatment group were weighed and received either one […] intravenous dose of either vehicle (10% DMSO, 45% propylene glycol, 45% sterile water) or 2.5 mg kg^−1 PAV-951, or one intraperitoneal dose of either vehicle ([…] 10% DMSO, 45% propylene glycol, 45% sterile water) or 5 mg kg^−1 PAV-621. Animals were sacrificed after 1 h, 4 h, 8 h, 24 h post-dosing. Concentration of drug in the plasma and lung over time was measured using a Waters Acquity TQD LCMS/MS. Maximum concentration (Cmax) was determined to be the maximum concentration detected in a dataset. Half life, area under the curve and mean residence time were calculated with Phoenix WinNolin software.

in vivo = settings: female, Balb/c, mouse, ip
A549 = experiment: In-house cancer cell viability screen (AlamarBlue); format: cell-based, human; settings: for change of potency when compound is added at the time of plating rather than 24 h later: A549; for IC50: Homo sapiens, AlamarBlue
A549 and MRC-5 cells = experiment: Toxicity to A549 cancer line versus non-cancer MRC-5 cells; format: cell-based
NCI-60 cancer cell lines = settings: for anti-cancer activity in NCI-60 single-dose testing: single dose 2.5 µM
[2] = mouse MTD; cited from earlier work
[3] = tested on: A549 human lung cancer xenograft; experiment: A549 xenograft studies; settings: for tumour growth inhibition (TGI): A549 xenograft, Gemcitabine 100 mg kg^−1 twice weekly
[4] = tested on: BB1 patient biopsy derived cell line (benign adenoma); experiment: BB1 and BB5 adenoma versus carcinoma screen (confocal imaging); format: cell-based, human; settings: 60 h, percent ChromaLive negative
Hennes 20 cells [5] = experiment: High density/low density 'arrest of proliferation' assay; format: cell-based, Chinese hamster; settings: Hennes 20, 72 h, AlamarBlue
LNCaP C-33 cells = experiment: Cell growth recovery assay; format: cell-based, human; settings: PAV-617 0.3 µM 24 h, PAV-951 0.4 µM 6 h, followed
Mpox Zaire 79 = format: cell-based, Mpox virus; settings: read-out: EC50 against Mpox
Hennes 20 cells [6] = experiment: Cell growth recovery assay; format: cell-based, Chinese hamster; settings: PAV-617 0.3 µM 24 h, PAV-951 0.4 µM 6 h, followed to day 14
Procedure: To confirm that the inhibition observed in low-density Hennes 20 cells resulted from temporary arrest of proliferation and not cell death, compound was removed after a period of treatment and cell growth was measured over the subsequent two weeks for recovery potential. Once compound was removed, following a period of recovery, cell proliferation was restored over time for both chemotypes (see figure 1f,g). By day 11, cell density in compound-treated cells had caught up to that in the DMSO-treated cells (see figure 1f,g).
A 96-well plate was seeded with either Hennes 20 or LNCaP C-33 cells at 500 cells per well in 90 µl of minimum essential media and incubated at 37°C for 24 h. 0.5% DMSO was diluted in media and added to six control wells for each plate. PAV-617 was diluted in media and added to three wells at a concentration of 0.3 µM. PAV-951 was diluted in media and added to concentration of 0.4 µM. After 24 h of PAV-617 treatment or 6 h of PAV-951 treatment, the medium containing compound was removed and replaced with fresh media. After 72 h (day 5), plates were assayed with AlamarBlue and fluorescence was read at 530/590. The medium containing AlamarBlue was removed and replaced with fresh media. After another 72 h (day 8) plates were assayed with AlamarBlue and fluorescence again, then medium containing AlamarBlue was removed and replaced with fresh media. […]

[7] = tested on: HT-29 colorectal cancer xenograft; experiment: HT-29 xenograft study; format: in vivo, mouse; settings: 17 days, PAV-951 3 mg kg^−1 IV, Irinotecan 60 mg kg^−1 IP
Procedure: In the second animal efficacy study, human HT-29 colorectal adenocarcinoma cells were grafted subcutaneously onto mice. After tumour establishment, the animals received treatment with vehicle, 3 mg kg^−1 PAV-951 or 60 mg kg^−1 of a positive control drug Irinotecan. […]. Survival was not assessed as part of the study.
HT-29 cells growing in HBSS medium were suspended in Matrigel. 0.1 ml of the cell suspension containing 5 × 10^6 cells were injected subcutaneously into the left flank region of male, 6–8 week old SCID mice. After tumour establishment, animals were divided randomly into groups of six and treated daily by IV with vehicle daily for 17 days, 3 mg kg^−1 PAV-951 three times per week for 17 days, or treated by IP with 60 mg kg^−1 Irinotecan every 4 days for 14 days. Tumour volume was calculated using the formula: (L × W2)/2 where L is the largest diameter and W is the smallest diameter of the tumour. Statistical analysis was performed using GraphPad Prism (Ver. 5.03). Statistical analysis of tumour growth inhibition between the Control and Treated groups was performed by using ne-way ANOVA followed by Dunnett’s test.

[8] = PAV-617 study, 28 days, IP, PAV-617 10 mg kg^−1 once daily

Compound: CCCCNc1ncnc2cc(N3CCN(c4ccc5c(NCCCC)ncnc5c4)CC3)ccc12 [PAV-621]
- exposure in the lung [1]: comparable exposure with PAV-951
- MTD at 72 h (in vivo): 7.5 mg/kg
- change of potency when compound is added at the time of plating rather than 24 h later (A549): increased potency
- toxicity to A549 cancer line compared with non-cancer MRC-5 cells (A549 and MRC-5 cells): selectively toxic to the A549 cancer line
- anti-cancer activity in NCI-60 single-dose testing (NCI-60 cancer cell lines): improvements relative to PAV-951

Compound: CCC1=C[C@@H]2CN(C1)Cc1c([nH]c3ccccc13)[C@@](C(=O)OC)(c1cc3c(cc1OC)N(C)[C@H]1[C@@](O)(C(=O)OC)[C@H](OC(C)=O)[C@]4(CC)C=CCN5CC[C@]31[C@@H]54)C2 [Vinorelbine]
- MTD [2]: 10 mg/kg

Compound: Nc1ccn([C@@H]2O[C@H](CO)[C@@H](O)C2(F)F)c(=O)n1 [Gemcitabine, Gemcitabine hydrochloride, reference compound]
- change of potency when compound is added at the time of plating rather than 24 h later (A549): did not significantly affect
- IC50 (A549; A549 (treatment 0 h after plating)): 3.01 µM
- IC50 (A549; A549 (treatment 24 h after plating), 72 h): 3.92 µM
- tumour growth inhibition (TGI) [3, 8]: 64%
- tumour growth inhibition (TGI) ([3]; PAV-951 study, 14 days, IV, PAV-951 1.5 mg kg^−1 once daily): 84%

Compound: cisplatin
- MTD [2]: 6 mg/kg

Compound: 3,7-Di(pyrrolidin-1-yl) phenothiazinium iodide [PAV-617]
- IC50 [4]: 0.81 µM
- inhibitory effect at low (500 cells per well) versus high (15 000 cells per well) density (Hennes 20 cells [5]): difference between their inhibitory effects on low and high density-plated Hennes 20 cells
- recovery of cell growth after removal of compound (LNCaP C-33 cells): did not recover
- EC50 (Mpox Zaire 79): 0.201 µM
- dose inhibiting growth relative to vehicle-treated cells (GI50) (NCI-60 cancer cell lines; for more than 40 cell lines): 2–3 digit nanomolar range
- CC50 (NCI-60 cancer cell lines; read-out: dose required to decrease cell viability below that at the time compound was added (LC50), for at least 40 cell lines): > 100 µM
- recovery of cell growth after removal of compound (Hennes 20 cells [6]): recovered over time
- tumour growth inhibition (TGI) [3, 8]: 63%
- adverse effects at the doses of the xenograft studies ([3]; clinical signs, weight loss, histopathological changes, blood cell count): without any serious adverse effects

Compound: CCc1c2c(nc3ccc(OC(=O)N4CCC(N5CCCCC5)CC4)cc13)-c1cc3c(c(=O)n1C2)COC(=O)[C@]3(O)CC [Irinotecan, reference compound]
- tumour growth inhibition (TGI) [7]: 108%

Compound: c1ccc(CCNc2ncnc3cc(N4CCN(c5ccc6c(NCCc7ccccc7)ncnc6c5)CC4)ccc23)cc1 [PAV-436]
- anti-cancer activity in NCI-60 single-dose testing (NCI-60 cancer cell lines): lost all anti-cancer activity on all cell lines examined
